Test results: PubChem BioAssay (NCI)
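Each compound was tested at five concentrations against cells in 96-well plates for 48 hours. At the TGI there is no net growth.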

Tests used:
Assay in all cases: NCI tumour cell line growth inhibition, 48 h
OVCAR-8 ovarian = tested on: OVCAR-8 ovarian
HCC-2998 colon = tested on: HCC-2998 colon
NCI-H460 lung = tested on: NCI-H460 lung
LXFL 529 NSCLC = tested on: LXFL 529 NSCLC
PC-3 prostate = tested on: PC-3 prostate
NCI/ADR-RES ovarian = tested on: NCI/ADR-RES ovarian
SNB-75 CNS = tested on: SNB-75 CNS
TK-10 renal = tested on: TK-10 renal
MALME-3M melanoma = tested on: MALME-3M melanoma
NCI-H226 lung = tested on: NCI-H226 lung
SW-620 colon = tested on: SW-620 colon
SK-MEL-5 melanoma = tested on: SK-MEL-5 melanoma
ACHN renal = tested on: ACHN renal
SR leukemia = tested on: SR leukemia
NCI-H23 lung = tested on: NCI-H23 lung
CAKI-1 renal = tested on: CAKI-1 renal
SNB-19 CNS = tested on: SNB-19 CNS
HS 578T breast = tested on: HS 578T breast
NCI-H522 lung = tested on: NCI-H522 lung
DLD-1 colon = tested on: DLD-1 colon
SK-OV-3 ovarian = tested on: SK-OV-3 ovarian
XF 498 CNS = tested on: XF 498 CNS
DU-145 prostate = tested on: DU-145 prostate
MCF7 breast = tested on: MCF7 breast
A498 renal = tested on: A498 renal
A549 NSCLC = tested on: A549 NSCLC
MDA-N = tested on: MDA-N
HL-60(TB) leukemia = tested on: HL-60(TB) leukemia
OVCAR-4 ovarian = tested on: OVCAR-4 ovarian
DMS 114 small cell lung = tested on: DMS 114 small cell lung
M19-MEL melanoma = tested on: M19-MEL melanoma
SF-295 CNS = tested on: SF-295 CNS
HCT-116 colon = tested on: HCT-116 colon
DMS 273 small cell lung = tested on: DMS 273 small cell lung
LOX IMVI melanoma = tested on: LOX IMVI melanoma
UACC-257 melanoma = tested on: UACC-257 melanoma
RXF 393 renal = tested on: RXF 393 renal
SNB-78 CNS = tested on: SNB-78 CNS
MDA-MB-435 = tested on: MDA-MB-435
K-562 leukemia = tested on: K-562 leukemia
HT29 colon = tested on: HT29 colon
HOP-18 NSCLC = tested on: HOP-18 NSCLC
HOP-92 NSCLC = tested on: HOP-92 NSCLC
RPMI-8226 leukemia = tested on: RPMI-8226 leukemia
OVCAR-5 ovarian = tested on: OVCAR-5 ovarian
SK-MEL-28 melanoma = tested on: SK-MEL-28 melanoma
U251 CNS = tested on: U251 CNS
SN12C renal = tested on: SN12C renal
SK-MEL-2 melanoma = tested on: SK-MEL-2 melanoma
HOP-62 NSCLC = tested on: HOP-62 NSCLC
EKVX NSCLC = tested on: EKVX NSCLC
CCRF-CEM leukemia = tested on: CCRF-CEM leukemia
UACC-62 melanoma = tested on: UACC-62 melanoma
HCT-15 colon = tested on: HCT-15 colon
MOLT-4 leukemia = tested on: MOLT-4 leukemia
OVCAR-3 ovarian = tested on: OVCAR-3 ovarian
MDA-MB-231 breast = tested on: MDA-MB-231 breast
KM20L2 colon = tested on: KM20L2 colon
IGROV1 ovarian = tested on: IGROV1 ovarian
UO-31 renal = tested on: UO-31 renal
SF-268 CNS = tested on: SF-268 CNS
KM12 colon = tested on: KM12 colon
M14 melanoma = tested on: M14 melanoma
SF-539 CNS = tested on: SF-539 CNS
786-0 renal = tested on: 786-0 renal
COLO 205 colon = tested on: COLO 205 colon

Compound: O=C1C(Nc2ccc(S(=O)(=O)Nc3cnc4ccccc4n3)cc2)=CC(=Nc2ccc(S(=O)(=O)Nc3cnc4ccccc4n3)cc2)c2ccccc21
- TGI (OVCAR-8 ovarian): 39.5 µM
- TGI (HCC-2998 colon): 31.3 µM
- TGI (NCI-H460 lung): 31.7 µM
- TGI (LXFL 529 NSCLC): 29.5 µM
- TGI (PC-3 prostate): 52.9 µM
- TGI (NCI/ADR-RES ovarian): > 100 µM
- TGI (SNB-75 CNS): 28.5 µM
- TGI (TK-10 renal): > 54.7 µM
- TGI (MALME-3M melanoma): 33.8 µM
- TGI (NCI-H226 lung): 43.7 µM
- TGI (SW-620 colon): 32.1 µM
- TGI (SK-MEL-5 melanoma): 31.5 µM
- TGI (ACHN renal): > 54.9 µM
- TGI (SR leukemia): > 73.9 µM
- TGI (NCI-H23 lung): 36.1 µM
- TGI (CAKI-1 renal): 31.2 µM
- TGI (SNB-19 CNS): 29 µM
- TGI (HS 578T breast): > 100 µM
- TGI (NCI-H522 lung): 30.5 µM
- TGI (DLD-1 colon): 31.8 µM
- TGI (SK-OV-3 ovarian): 31 µM
- TGI (XF 498 CNS): 59.2 µM
- TGI (DU-145 prostate): 30.7 µM
- TGI (MCF7 breast): 42.4 µM
- TGI (A498 renal): 30.3 µM
- TGI (A549 NSCLC): 38 µM
- TGI (MDA-N): 34.8 µM
- TGI (HL-60(TB) leukemia): 54.7 µM
- TGI (OVCAR-4 ovarian): 47.2 µM
- TGI (DMS 114 small cell lung): 38 µM
- TGI (M19-MEL melanoma): 30.8 µM
- TGI (SF-295 CNS): 30.3 µM
- TGI (HCT-116 colon): 32.9 µM
- TGI (DMS 273 small cell lung): 24.4 µM
- TGI (LOX IMVI melanoma): 30.7 µM
- TGI (UACC-257 melanoma): > 65.2 µM
- TGI (RXF 393 renal): 32.3 µM
- TGI (SNB-78 CNS): 47.3 µM
- TGI (MDA-MB-435): 34 µM
- TGI (K-562 leukemia): > 74.9 µM
- TGI (HT29 colon): 36.3 µM
- TGI (HOP-18 NSCLC): 26.9 µM
- TGI (HOP-92 NSCLC): 28.7 µM
- TGI (RPMI-8226 leukemia): > 77.8 µM
- TGI (OVCAR-5 ovarian): 30.8 µM
- TGI (SK-MEL-28 melanoma): 33 µM
- TGI (U251 CNS): 34 µM
- TGI (SN12C renal): 30.6 µM
- TGI (SK-MEL-2 melanoma): 36.3 µM
- TGI (HOP-62 NSCLC): 34.8 µM
- TGI (EKVX NSCLC): 36.1 µM
- TGI (CCRF-CEM leukemia): 57 µM
- TGI (UACC-62 melanoma): 33.6 µM
- TGI (HCT-15 colon): 33 µM
- TGI (MOLT-4 leukemia): 71.2 µM
- TGI (OVCAR-3 ovarian): 47.6 µM
- TGI (MDA-MB-231 breast): 70.2 µM
- TGI (KM20L2 colon): 32 µM
- TGI (IGROV1 ovarian): 37.4 µM
- TGI (UO-31 renal): 30.4 µM
- TGI (SF-268 CNS): 38.2 µM
- TGI (KM12 colon): 31 µM
- TGI (M14 melanoma): 33.7 µM
- TGI (SF-539 CNS): 35.7 µM
- TGI (786-0 renal): 31.6 µM
- TGI (COLO 205 colon): 33.1 µM
